Assay results reported in US20220089646A1 (THE UNIVERSITY OF QUEENSLAND, priority 2019, published 2022).
*1 amine or outer side, *2 acyl side, *3 side chain or, on linkers, in order; H or OH if unused. Where a SMILES comes first, the peptide text is derived from it. Bridges are numbered along the chain shown (N, C = ends). [ ]: non-standard residue; d: D form. NHCH2CMe2S = CC(C)(CN[*:1])S[*:2]

Assays:
DOP [1] = target: T1, DOP (Homo sapiens, UniProt P41143); assay: cAMP assay with naloxone in HEK-DOP cells; format: cell-based; conditions: naloxone 100 μM/well; for Mean cAMP response with naloxone: HEK-DOP, peptide at approximate IC80; for Naloxone reversal of cAMP inhibition through DOP: p<0.05
T1 sequence (P41143 whole entry): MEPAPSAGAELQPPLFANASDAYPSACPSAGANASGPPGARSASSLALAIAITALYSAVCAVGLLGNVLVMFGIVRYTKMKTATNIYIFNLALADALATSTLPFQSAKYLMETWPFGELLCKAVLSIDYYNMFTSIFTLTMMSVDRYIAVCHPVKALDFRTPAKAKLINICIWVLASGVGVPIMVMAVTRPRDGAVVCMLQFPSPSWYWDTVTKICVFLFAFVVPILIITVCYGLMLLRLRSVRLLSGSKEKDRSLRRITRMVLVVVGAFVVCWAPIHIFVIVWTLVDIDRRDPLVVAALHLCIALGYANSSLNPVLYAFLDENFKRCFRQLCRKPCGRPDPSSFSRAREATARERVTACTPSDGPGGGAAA
Procedure: The preparation of buffers, cAMP standard curve, bead solutions were carried out identically to the agonist assay.
Forskolin had been optimised at 50 μM/well. Thus, the 25 mM stocks were used to prepare 300 μL of 0.3 mM Forskolin. The concentration of Forskolin prepared was 6 times the required concentration in the well to account for further dilution in the well. Forskolin solution was then made from this and used to dilute the drug solutions.
Approximate IC80 values were used for DP-7-11 and DP-7-12 to determine the ability of naloxone to reverse agonist inhibitory effect.
The desired concentration of naloxone was 100 μM/well. Thus, 100 μL of 600 μM naloxone was made up from 100 mM stock. This was 6 times the desired in-well concentration to account for further dilution in the well by Forskolin, peptide, cells and acceptor bead solutions.
Stimulation buffer was added to the 0.3 mM Forskolin solution to prepare the Forskolin only treatment solution as the positive control. Stimulation buffer used as the negative control.
The DP series compounds were assayed as follows: The different cAMP standard solutions (3 μL/well) were plated in duplicate. Naloxone solution was then plated (1 μL/well) for each treatment (DP-7-11, DP-7-12, Forskolin only and stimulation buffer) in triplicate. In the same way, stimulation buffer was plated (1 μL/well) for the same number of wells. This made up two sets of wells, antagonist and non-antagonist. Following this, the acceptor bead and cell mixture (3 μL/well) was added to the treatment wells. The plates were then covered and centrifuged at 280 g for 30 seconds before incubation on an orbital shaker for 30 minutes at room temperature. The acceptor bead mixture (3 μL/well) was then added to the cAMP standard curve wells, whilst the drug mixed with Forskolin solutions (3 μL/well) were added to the respective treatment wells in triplicate. Again, the plates were centrifuged at 280 g for 30 seconds, then covered and incubated on the orbital shaker for another 30 minutes. Finally, the donor bead mixture (10 μL/well) was added to each well. This was incubated at room temperature overnight on the orbital shaker.
The Ensight® Multimode Plate Reader was used to quantify the fluorescence units of each plate. Before reading, each plate was centrifuged at 280 g for 30 seconds. Using GraphPad Prism7® Software, cAMP concentrations were determined from the fluorescence data by fit spline/LOWESS analysis. The cAMP standard curve was used for interpolation at this point. The cAMP concentrations were then normalized to the highest cAMP concentration recorded and analyzed by one-way ANOVA for multiple comparisons. This analysis was corrected for multiple comparisons using Bonferroni. […]

DOP [2] = target: T1, DOP; assay: Inhibition of Forskolin-induced cAMP production in HEK-DOP cells (AlphaScreen, DP series); format: cell-based; conditions: for IC50: Forskolin 50 μM/well, 95% CI in brackets; for IC80: approximate IC80, 'EC anything' protocol
Procedure: DP-7-11 and DP-7-12 were assessed for the ability to inhibit cAMP production in HEK-DOP and HEK KOP cells.
The HEK-293 DOP (HEK-DOP) and HEK-293 KOP (HEK-KOP) cell lines were cultured in a T75 flask, in Dulbeco's Modified Eagle's Medium (DMEM) complete with 10% (v/v) fetal bovine serum (FBS) and 1% (v/v) Geneticin. Cells were incubated in a humidified atmosphere of 37° C. (95% air and 5% CO2). Cells were passaged at 80-90% confluence and media was changed every two days.
Stimulation buffer and Lysis buffer were prepared fresh on the day of each assay. Stimulation buffer contained 19.5 mL Hanks buffered saline solution, Bovine serum albumin (BSA) 0.1% (w/v), 0.5 mM 3-Isobutyl-1-methylxanthine (IBMX) and 5 mM HEPES (4-(2-hydroxyethyl)-1-piperazineethanesulfonic acid). Lysis buffer contained 19 mL Mili-Q H2O, BSA 0.1% (w/v), 0.3% (v/v) 10% Tween-20, and 5 mM HEPES. Both buffers were adjusted to pH 7.4 with NaOH.
The cAMP standard dilution series was prepared from the 50 μM cAMP standard solution provided by the cAMP assay kit. The standard solution was vortexed before being serially diluted to provide a concentration range of 5×10^−6 M to 5×10^−11 M in ½ Log intervals.
For this assay, Forskolin was optimised at 50 μM/well. 25 mM stocks were used to prepare 0.2 mM Forskolin. The concentration of Forskolin prepared was 4 times the required concentration in the well to account for further dilution in the well. 0.1 mM Forskolin solution was then made from this and used to dilute the peptide solutions.
DP-7-11 and DP-7-12 provided in powder form and reconstituted to 10 mM stock solutions and diluted to 1 mM working stocks using Mili-Q H2O. Each peptide solution was serially diluted to give concentrations of 1×10^−6 to 3×10^−7 M with stimulation buffer.
Stimulation buffer was added to the 0.2 mM Forskolin solution in a 1:1 ratio to prepare the Forskolin only treatment solution. This was the positive control. Stimulation buffer was used as the negative control.
Cells were harvested from two T75 flasks on the day of experimentation. Identical protocol was used for both DOP and KOP cells. The cells were first removed from the incubator and washed with Versene®. The cells were then incubated in 2 mL of Versene® at 37° C. for 5 minutes. Following this, the mixture was made up to 5 mL with Versene® in a centrifuge tube. This was centrifuged at 1300 rpm for 2 minutes at 23° C. The supernatant was then decanted and the cells resuspended in 100 μL stimulation buffer for counting. A hemocytometer was used to count the cells. This assay required the concentration of cells to be 13300 cells/μL
This method was used to conduct all cAMP Alphascreen assays. The acceptor bead mixture consisted of acceptor beads and stimulation buffer mixed according to the ratio 1:35 given in the kit. From this, the acceptor beads mixture was used to prepare separate mixtures for the cAMP standard curve and for the treatment wells of the assay. For the treatment wells, the beads were mixed with cells in a 1:1 ratio. For the cAMP standard curve, the beads were mixed with more stimulation buffer in a 1:1 ratio. The donor bead mixture consisted of donor beads, biotinylated cAMP and lysis buffer mixed in the ratio 1:3:300.
The DP series compounds were assayed as follows: The assay was performed using a 96 well ½ area plate. The different cAMP standard solutions (3 μL/well) were plated in duplicate. The different concentrations of drug (3 μL/well), and control solutions (3 μL/well) were plated in triplicate. Following this, the acceptor bead mixture (3 μL/well) was added to the respective sets—either cAMP standard curve or the treatment. This was covered and incubated on the orbital shaker for 30 minutes at room temperature. Then, the donor bead mixture (10 μL/well) was added to each well. This was incubated at room temperature overnight on the orbital shaker. […]

[3] = concentration-response curve, % cAMP

SMILES | Mean cAMP response with naloxone (DOP [1]) | Naloxone reversal of cAMP inhibition through DOP (DOP [1]) | IC50 (DOP [2]) | IC80 (DOP [2]) | Maximum cAMP response, HEK-DOP (DOP [2]; [3]) | Minimum cAMP response, HEK-DOP (DOP [2]; [3]) | Potency at DOP relative to KOP (DOP [2]; cAMP IC50 DOP vs KOP)
CC1(C)CNC(=O)C[C@H](C(=O)N[C@@H](CCCNC(=N)N)C(=O)N[C@@H](CCCNC(=N)N)C(N)=O)NC(=O)[C@H](Cc2ccccc2)NC(=O)CNC(=O)[C@@H](NC(=O)[C@@H](N)Cc2ccc(O)cc2)CSS1 [DP-7-11, c(Tyr-SSa-Gly-Phe-D(Asp)-Arg-Arg)] | 77.18% | reversed by naloxone | 1.83 nM | 24.1 nM | 93.79% | 23.13% | 
CC1(C)CNC(=O)C[C@@H](NC(=O)[C@@H](N)Cc2ccc(O)cc2)C(=O)NCC(=O)N[C@@H](Cc2ccccc2)C(=O)N[C@H](C(=O)N[C@@H](CCCNC(=N)N)C(=O)N[C@@H](CCCNC(=N)N)C(N)=O)CSS1 [DP-7-12, c(Tyr-D(Asp)-Gly-Phe-SSa-Arg-Arg)] (H-Y[dD]GFCRR-NH2; linker 2-5 via NHCH2CMe2S) | 62.68% | reversed by naloxone | 0.608 nM | 2.72 nM | 14.03% |  | ten times
